Each block holds one compound with its values, some of them ahead of it.
Assays:
H2 -receptor = details: said in U.S. Pat. No. 4,203,909; cited from earlier work
H2 -receptors = target: T1, H2 -receptors (Rattus norvegicus, UniProt P25102); test: H2-receptor blocking activity, histamine relaxation of KCl-contracted isolated rat uterine horns; assay type: cell-based; details: for Kb: antagonist 10^-5 molar for 30 minutes, rat uterine strips, histamine dose-response shift, read-out: pA2 (-log KB) (converted)
T1 construct: uterine horns removed therefrom and suspended at ambient temperatures in isolated organ baths; from tissue; host or cells: isolated uterine horns of estrone-treated female albino rats
T1 sequence (P25102 whole entry): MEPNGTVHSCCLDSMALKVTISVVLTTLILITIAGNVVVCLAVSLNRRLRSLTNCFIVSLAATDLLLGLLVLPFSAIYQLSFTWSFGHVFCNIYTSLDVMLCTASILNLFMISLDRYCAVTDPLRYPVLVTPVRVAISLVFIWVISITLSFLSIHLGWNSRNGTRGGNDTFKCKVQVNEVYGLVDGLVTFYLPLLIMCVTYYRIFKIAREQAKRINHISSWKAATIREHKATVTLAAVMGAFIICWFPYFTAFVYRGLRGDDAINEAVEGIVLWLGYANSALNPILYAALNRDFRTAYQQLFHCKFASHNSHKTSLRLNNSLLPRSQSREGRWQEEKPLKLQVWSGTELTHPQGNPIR
Procedure: The following assay for H2 -receptor blocking activity was employed. Female albino rats were treated with estrone 24 hours prior to the initiation of the experiment. The rats were sacrificed and the uterine horns removed therefrom and suspended at ambient temperatures in isolated organ baths containing De Jalon's solution. After equilibration, the uterine strips are exposed to 50 millimole aqueous potassium chloride, which produces a sustained contraction. When the uterus is so contracted, histamine produces a dose-dependent H2 -receptor-mediated relaxation. A control dose-response curve to histamine is constructed on each tissue. Following thorough washout of the histamine after obtaining the control dose-response curve, each antagonist (the compounds of this invention) is added for 30 minutes at a concentration of 10^-5 molar. The uterine strips are then contracted with aqueous potassium chloride in the presence of the antagonist and a second dose-response curve to histamine obtained. In the presence of a competitive antagonist, the dose-response curve to histamine is shifted in parallel to the right with no depression of the maximum relative to the control curve. The dose ratio (DR) is calculated for each concentration of antagonist by dividing the ED50 of histamine in the presence of the competitive antagonist by the control ED50 for histamine. The dissociation constant (KB ) of the antagonist is calculated from the dose-ratios by the following equation: […]
Cimetidine is included as an internal standard.

acid secretion = test: in vivo antisecretory action on histamine-stimulated acid secretion in gastric fistula dogs
Procedure: An in vivo assay for antisecretory action of drugs on acid secretion utilizes gastric fistula dogs with vagally innervated gastric fistula and vagally denervated Heidenhain pouch. In this procedure, a steady-state gastric secretion is produced by the iv infusion of histamine. The antisecretory drugs under test are given either intravenously by infusion over a 30 minute period or orally 75 min. prior to collection of gastric secretion from the fistula.

H2 receptor = details: prior art; cited from earlier work

SMILES: C#CCNC(=C[N+](=O)[O-])NCCSCc1ccc(CN(C)C)o1 [1-nitro-2-(2-propynylamino)-2-(2-[(5-dimethylaminomethyl-2-furyl)methylthio]ethylamino)ethylene]
times the activity of cimetidine (H2 -receptor): 7.45 times

Kb (H2 -receptors): 1000 nM
SMILES: C#CCNC(=NC#N)NCCSCc1csc(CN(C)C)n1 [N-2-propynyl-N'-2-(2-dimethylaminomethyl-4-thiazolylmethylthio)ethyl-N"-cyanoguanidine]

Kb (H2 -receptors): 186 nM
times higher affinity for the H2 -receptors than cimetidine (H2 -receptors; relative to cimetidine internal standard): approximately 3.63 times
SMILES: C#CCNC(=C[N+](=O)[O-])NCCSCc1csc(CN(C)C)n1 [N-(2-propynyl)-N'-2-(2-dimethylaminomethyl-4-thiazolylmethylthio)ethyl 2-nitro-1,1-ethenediamine]
ED50 (acid secretion; Canis lupus familiaris, 0.5 h, iv infusion over 30 minutes, histamine-stimulated gastric secretion): 0.068 µmol/kg
times smaller ED50 (iv) than that found for cimetidine (acid secretion; iv, relative to cimetidine): over 7 times

SMILES: CNC(=C[N+](=O)[O-])NCCSCc1ccc(CN(C)C)o1 [ranitidine]
H2 receptor antagonist activity compared with cimetidine (H2 receptor): greater H2 receptor antagonist activity than cimetidine

Reference: US4474794A, “N-Thiazolylmethylthioalkyl-N^1 -alkenyl (or alkynyl)guanidines and related compounds” (Eli Lilly and Company, priority 1982, dated 1984)
